Like-named read-outs stand apart in the source and are kept apart here. Where a SMILES comes first, the peptide text is derived from it. Where no end group is shown, it is not given here. [ ]: non-standard residue; d: D form. The star is where a group is joined. Biotin = O=C1N[C@H]2[C@H](CS[C@H]2CCCCC(=O)*)N1; Palmitoyl = CCCCCCCCCCCCCCCC(=O)*; Nle = CCCC[C@H](N)C(=O)O; Aib = CC(C)(N)C(=O)O
Columns and labels:
hGLP-1R = target: T1, hGLP-1R (Homo sapiens, UniProt P43220); assay: hGLP-1R-mediated cAMP induction assay in CHO cell line; assay type: cell-based; conditions: for GLP-1 Receptor Relative Potency / GLP-1R Relative Potency: against native GLP-1;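 for all read-outs here: CHO cells expressing human GLP-1R, treated 30 min at 37 °C, intracellular cAMP measured by competitive fluorescent immunoassay and converted via a cAMP standard curve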
T1 construct: expressed in transfected cells; host or cells: CHO

hGIPR = target: T2, hGIPR (Homo sapiens, UniProt P48546); assay: hGIPR-mediated cAMP induction assay in CHO cell line; assay type: cell-based; conditions: for GIP Receptor Relative Potency / GIPR Relative Potency: against native GIP
T2 construct: expressed in transfected cells; host or cells: CHO
T2 sequence (P48546 22-466): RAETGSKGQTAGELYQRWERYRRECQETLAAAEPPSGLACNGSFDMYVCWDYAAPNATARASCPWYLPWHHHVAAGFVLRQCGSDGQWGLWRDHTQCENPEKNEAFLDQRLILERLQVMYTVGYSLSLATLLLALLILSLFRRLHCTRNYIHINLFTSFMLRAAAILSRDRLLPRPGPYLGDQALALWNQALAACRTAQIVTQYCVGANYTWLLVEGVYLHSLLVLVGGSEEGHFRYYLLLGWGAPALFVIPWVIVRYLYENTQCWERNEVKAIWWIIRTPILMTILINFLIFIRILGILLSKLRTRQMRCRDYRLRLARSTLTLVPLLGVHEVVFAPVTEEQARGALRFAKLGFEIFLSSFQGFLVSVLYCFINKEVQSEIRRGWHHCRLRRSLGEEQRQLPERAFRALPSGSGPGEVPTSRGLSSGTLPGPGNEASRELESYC

[1] = Table 1, CHO/hGLP-1R cells, read-out: GLP-1R EC50
[2] = Table 1, CHO/hGIPR cells, read-out: GIPR EC50

T1 sequence (P43220 24-463): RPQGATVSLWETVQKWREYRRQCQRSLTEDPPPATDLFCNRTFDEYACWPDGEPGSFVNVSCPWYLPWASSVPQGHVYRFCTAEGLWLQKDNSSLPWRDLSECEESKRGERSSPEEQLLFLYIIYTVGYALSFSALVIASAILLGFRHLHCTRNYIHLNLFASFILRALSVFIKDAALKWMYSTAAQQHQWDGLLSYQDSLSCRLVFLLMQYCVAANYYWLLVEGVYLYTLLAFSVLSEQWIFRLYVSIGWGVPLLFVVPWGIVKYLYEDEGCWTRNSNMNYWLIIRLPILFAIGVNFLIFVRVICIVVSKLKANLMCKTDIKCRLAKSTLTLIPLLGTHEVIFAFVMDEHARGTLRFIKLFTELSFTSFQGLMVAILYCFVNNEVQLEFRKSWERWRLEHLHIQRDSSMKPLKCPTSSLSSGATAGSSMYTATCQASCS

Row | EC50 (hGLP-1R; [1]) | GLP-1R Relative Potency (hGLP-1R; Table 1) | EC50 (hGIPR; [2]) | GIPR Relative Potency (hGIPR; Table 1) | Compound | EC50 (hGLP-1R; Table 3, CHO hGLP1R cells) | GLP-1 Receptor Relative Potency (hGLP-1R; Table 3) | EC50 (hGIPR; Table 3, CHO hGIPR cells) | GIP Receptor Relative Potency (hGIPR; Table 3) | GLP-1R activation (GLP-1 activity) against native GLP-1 (hGLP-1R) | GIPR activation (GIP activity) against native GIP (hGIPR; CHO/hGIPR cell assay)
1 |  |  |  |  | CCCCCCCCCCCCCCCC(=O)NCCCC[C@H](NC(=O)[C@H](CO)NC(=O)[C@@H]1CCCN1C(=O)[C@@H]1CCCN1C(=O)[C@@H]1CCCN1C(=O)[C@H](C)NC(=O)CNC(=O)[C@H](CO)NC(=O)[C@H](CO)NC(=O)[C@@H]1CCCN1C(=O)CNC(=O)CNC(=O)[C@H](CCCCN)NC(=O)[C@@H](NC(=O)[C@H](CC(C)C)NC(=O)[C@H](Cc1c[nH]c2ccccc12)NC(=O)[C@H](C)NC(=O)[C@@H](NC(=O)[C@H](Cc1ccccc1)NC(=O)[C@H](CCC(=O)O)NC(=O)[C@H](CCCNC(=N)N)NC(=O)[C@@H](NC(=O)[C@H](C)NC(=O)[C@H](CCC(=O)O)NC(=O)[C@H](CCCCN)NC(=O)[C@H](CCC(=O)O)NC(=O)[C@H](CCSC)NC(=O)[C@H](Cc1ccc(O)cc1)NC(=O)[C@@H](NC(=O)[C@H](CO)NC(=O)[C@H](Cc1ccc(O)cc1)NC(=O)[C@H](CC(=O)O)NC(=O)[C@H](CO)NC(=O)[C@@H](NC(=O)[C@H](Cc1ccccc1)NC(=O)[C@@H](NC(=O)CNC(=O)[C@H](CCC(N)=O)NC(=O)C(C)(C)NC(=O)[C@@H](N)Cc1ccc(O)cc1)[C@@H](C)O)[C@@H](C)O)[C@@H](C)CC)C(C)C)[C@@H](C)CC)C(C)C)C(N)=O [Compound 120] (H-Y[Aib]QGTFTSDYSIYMEKEAVREFIAWLVKGGPSSGAPPPSK(Palmitoyl)-NH2) | 0.253 nM | 586.6 | 0.039 nM | 294.9 |  | 
2 | 1.28 nM | 75% | 0.088 nM | 106.8% | CC[C@H](C)[C@H](NC(=O)[C@H](Cc1ccccc1)NC(=O)[C@H](CCC(=O)O)NC(=O)[C@H](CCCNC(=N)N)NC(=O)[C@@H](NC(=O)[C@H](C)NC(=O)[C@H](CCC(=O)O)NC(=O)[C@H](CCCCN)NC(=O)[C@H](CCC(=O)O)NC(=O)[C@H](CCSC)NC(=O)[C@H](Cc1ccc(O)cc1)NC(=O)[C@@H](NC(=O)[C@H](CO)NC(=O)[C@H](Cc1ccc(O)cc1)NC(=O)[C@H](CC(=O)O)NC(=O)[C@H](CO)NC(=O)[C@@H](NC(=O)[C@H](Cc1ccccc1)NC(=O)[C@@H](NC(=O)CNC(=O)[C@H](CCC(=O)O)NC(=O)C(C)(C)NC(=O)[C@@H](N)Cc1ccc(O)cc1)[C@@H](C)O)[C@@H](C)O)[C@@H](C)CC)C(C)C)C(=O)N[C@@H](C)C(=O)N[C@@H](Cc1c[nH]c2ccccc12)C(=O)N[C@@H](CC(C)C)C(=O)N[C@H](C(=O)N[C@@H](CCCCN)C(=O)NCC(N)=O)C(C)C [Compounds 023] (H-Y[Aib]EGTFTSDYSIYMEKEAVREFIAWLVKG-NH2) |  | 75 |  | 106.8 |  | 
3 | 0.309 nM | 354% | 0.1 nM | 500% | CC[C@H](C)[C@H](NC(=O)[C@H](CO)NC(=O)[C@H](Cc1ccc(O)cc1)NC(=O)[C@H](CC(=O)O)NC(=O)[C@H](CO)NC(=O)[C@@H](NC(=O)[C@H](Cc1ccccc1)NC(=O)[C@@H](NC(=O)CNC(=O)[C@H](CCC(=O)O)NC(=O)C(C)(C)NC(=O)[C@@H](N)Cc1ccc(O)cc1)[C@@H](C)O)[C@@H](C)O)C(=O)N[C@@H](Cc1ccc(O)cc1)C(=O)N[C@@H](CCSC)C(=O)N[C@@H](CCC(=O)O)C(=O)N[C@@H](CCCCN)C(=O)N[C@@H](CCC(=O)O)C(=O)N[C@@H](C)C(=O)N[C@H](C(=O)N[C@@H](CCCNC(=N)N)C(=O)N[C@@H](CC(C)C)C(=O)N[C@@H](Cc1ccccc1)C(=O)N[C@H](C(=O)N[C@@H](CCC(=O)O)C(=O)N[C@@H](Cc1c[nH]c2ccccc12)C(=O)N[C@@H](CC(C)C)C(=O)N[C@@H](CCCCN)C(=O)N[C@@H](CC(N)=O)C(=O)NCC(N)=O)[C@@H](C)CC)C(C)C [Compounds 024] (H-Y[Aib]EGTFTSDYSIYMEKEAVRLFIEWLKNG-NH2; N-terminus assumed) |  | 354 |  | 500 |  | 
4 | 0.837 nM | 131% | 1.5 nM | 33.3% | CC[C@H](C)[C@H](NC(=O)[C@H](Cc1ccccc1)NC(=O)[C@H](CCC(=O)O)NC(=O)[C@H](CCCCN)NC(=O)[C@H](C)NC(=O)[C@H](C)NC(=O)[C@H](CCC(N)=O)NC(=O)[C@H](CCCCN)NC(=O)[C@H](CCC(=O)O)NC(=O)[C@H](CCSC)NC(=O)[C@H](Cc1ccc(O)cc1)NC(=O)[C@@H](NC(=O)[C@H](CO)NC(=O)[C@H](Cc1ccc(O)cc1)NC(=O)[C@H](CC(=O)O)NC(=O)[C@H](CO)NC(=O)[C@@H](NC(=O)[C@H](Cc1ccccc1)NC(=O)[C@@H](NC(=O)CNC(=O)[C@H](CCC(=O)O)NC(=O)C(C)(C)NC(=O)[C@@H](N)Cc1ccc(O)cc1)[C@@H](C)O)[C@@H](C)O)[C@@H](C)CC)C(=O)N[C@@H](C)C(=O)N[C@@H](Cc1c[nH]c2ccccc12)C(=O)N[C@@H](CC(C)C)C(=O)N[C@H](C(=O)N[C@@H](CCCCN)C(=O)NCC(N)=O)C(C)C [Compounds 025] (H-Y[Aib]EGTFTSDYSIYMEKQAAKEFIAWLVKG-NH2; N-terminus assumed) |  | 131 |  | 33.3 |  | 
5 | 0.38 nM | 288% | 4.2 nM | 11.9% | CC[C@H](C)[C@H](NC(=O)[C@H](Cc1ccccc1)NC(=O)[C@H](CC(C)C)NC(=O)[C@H](CCCCN)NC(=O)[C@H](C)NC(=O)[C@H](C)NC(=O)[C@H](CCC(N)=O)NC(=O)[C@H](CCCCN)NC(=O)[C@H](CCC(=O)O)NC(=O)[C@H](CCSC)NC(=O)[C@H](Cc1ccc(O)cc1)NC(=O)[C@@H](NC(=O)[C@H](CO)NC(=O)[C@H](Cc1ccc(O)cc1)NC(=O)[C@H](CC(=O)O)NC(=O)[C@H](CO)NC(=O)[C@@H](NC(=O)[C@H](Cc1ccccc1)NC(=O)[C@@H](NC(=O)CNC(=O)[C@H](CCC(=O)O)NC(=O)C(C)(C)NC(=O)[C@@H](N)Cc1ccc(O)cc1)[C@@H](C)O)[C@@H](C)O)[C@@H](C)CC)C(=O)N[C@@H](CCC(=O)O)C(=O)N[C@@H](Cc1c[nH]c2ccccc12)C(=O)N[C@@H](CC(C)C)C(=O)N[C@@H](CCCCN)C(=O)N[C@@H](CC(N)=O)C(=O)NCC(N)=O [Compounds 026] (H-Y[Aib]EGTFTSDYSIYMEKQAAKLFIEWLKNG-NH2) |  | 288 |  | 11.9 |  | 
6 |  |  |  |  | H-Y[Aib]EGTFTSDYSIYMEKEAVREFIAWLVKGGPSSGAPPPSKKKKKK(Biotin)-NH2 [Compound 080] | 1.11 nM | 98.5 | 0.1 nM | 67 |  | 
7 |  |  |  |  | Tyr-Aib-Glu-Gly-Thr-Phe-Thr-Ser-Asp-Tyr-Ser-Ile-Tyr-Nle-Glu-Lys-Ile-His-Gln-Gln-Asp-Phe-Val-Asn-Trp-Leu-Val-Arg-Gln(NH2) (Y[Aib]EGTFTSDYSIY[Nle]EKIHQQDFVNWLVRQ-NH2) [Analog 021] |  |  |  |  | around 5% | 21%
8 |  |  |  |  | Y[Aib]EGTFTSDYSIYMEKEAVREFIAWLVKGGPSSGAPPPSKKKKKK(Palmitoyl)-NH2 [Compound 078] | 0.145 nM | 754 | 0.019 nM | 352.6 |  | 
9 |  |  |  |  | Y[Aib]EGTFTSDYSIYMEKEAVREFIAWLVKGGPSSGAPPPSKKKKKK-NH2 [Compound 071] | 3.8 nM | 25.1 | 0.77 nM | 22.1 |  | 

Source: US9453062B2, “Glucose dependent insulinotropic polypeptide analogs, pharmaceutical compositions and use thereof” (Beijing Hanmi Pharmaceutical Co., Ltd., priority 2011, dated 2016)
